Source: ChEMBL document CHEMBL3046687, “New thiazolidine-2,4-diones as antimicrobial and cytotoxic agent” (Med Chem Res, 2012)
≈ marks a conversion by molar mass, not a printed value.

Assays:
[1] = system: Pseudomonas aeruginosa; test: Antimicrobial activity against Pseudomonas aeruginosa ATCC 25619 after 24 hr by two-fold serial dilution method; format: functional; conditions: ATCC 25619, 24 h
[2] = system: Aspergillus niger; test: Antimicrobial activity against Aspergillus niger ATCC 6275 after 48 hr by two-foldserial dilution method; format: functional; conditions: ATCC 6275, 48 h
[3] = system: Cryptococcus neoformans; test: Antimicrobial activity against Cryptococcus neoformans clinical isolate after 48 hr by two-fold serial dilution method; format: functional
[4] = system: Enterococcus faecalis; test: Antimicrobial activity against Enterococcus faecalis ATCC 35550 after 24 hr by two-fold serial dilution method; format: functional; conditions: ATCC 35550, 24 h
[5] = system: Staphylococcus aureus; test: Antimicrobial activity against Staphylococcus aureus ATCC 25923 after 24 hr by two fold serial dilution method; format: functional; conditions: ATCC 25923, 24 h
[6] = system: Escherichia coli; test: Antimicrobial activity against Escherichia coli ATCC 35218 after 24 hr by two-fold serial dilution method; format: functional; conditions: ATCC 35218, 24 h
[7] = system: MCF7; test: Cytotoxicity against Homo sapiens (human) MCF7 cells after 24 hr by MTT assay; format: functional, cell-based; conditions: MCF7, 24 h
[8] = system: HeLa; test: Cytotoxicity against Homo sapiens (human) HeLa cells after 24 hr by MTT assay; format: functional, cell-based
[9] = system: Aspergillus flavus; test: Antimicrobial activity against Aspergillus flavus NCIM 524 after 48 hr by two-fold serial dilution method; format: functional; conditions: NCIM 524, 48 h
[10] = system: HT-29; test: Cytotoxicity against Homo sapiens (human) HT-29 cells after 24 hr by MTT assay; format: functional, cell-based; conditions: HT-29, 24 h
[11] = system: A549; test: Cytotoxicity against Homo sapiens (human) A549 cells after 24 hr by MTT assay; format: functional, cell-based; conditions: A549, 24 h
[12] = system: Candida albicans; test: Antimicrobial activity against Candida albicans ATCC 2091 after 48 hr by two-fold serial dilution method; format: functional; conditions: ATCC 2091, 48 h

| Compound | MIC [1] [µg/mL] | MIC [2] [µg/mL] | MIC [3] [µg/mL] | MIC [4] [µg/mL] | MIC [5] [µg/mL] | MIC [6] [µg/mL] | MIC [9] [µg/mL] | MIC [12] [µg/mL] | IC50 [7] [µM] | IC50 [8] [µM] | IC50 [10] [µM] | IC50 [11] [µM] |
| --- | --- | --- | --- | --- | --- | --- | --- | --- | --- | --- | --- | --- |
| COc1cccc(/C=C2\SC(=O)N(Cc3ccc(C(=O)O)cc3)C2=O)c1 | 8 (≈ 21.7 µM) | 32 (≈ 86.6 µM) | 16 (≈ 43.3 µM) | 16 (≈ 43.3 µM) | 16 (≈ 43.3 µM) | 8 (≈ 21.7 µM) | 32 (≈ 86.6 µM) | 32 (≈ 86.6 µM) | 58 | 48 | 48 | 55 |
| O=C(O)c1ccc(CN2C(=O)S/C(=C\c3ccccn3)C2=O)cc1 | 16 (≈ 47 µM) | 32 (≈ 94 µM) | 16 (≈ 47 µM) | 64 (≈ 188 µM) | 64 (≈ 188 µM) | 16 (≈ 47 µM) | 16 (≈ 47 µM) | 32 (≈ 94 µM) | 90 | 62 | 78 | 80 |
| O=C(O)c1ccc(CN2C(=O)S/C(=C\c3cccnc3)C2=O)cc1 | 32 (≈ 94 µM) | 16 (≈ 47 µM) | 32 (≈ 94 µM) | 128 (≈ 376 µM) | 128 (≈ 376 µM) | 32 (≈ 94 µM) | 16 (≈ 47 µM) | 32 (≈ 94 µM) | 100 | 88 | 90 | 75 |
| O=C(O)c1ccc(CN2C(=O)S/C(=C\c3ccncc3)C2=O)cc1 | 16 (≈ 47 µM) | 32 (≈ 94 µM) | 16 (≈ 47 µM) | 16 (≈ 47 µM) | 32 (≈ 94 µM) | 16 (≈ 47 µM) | 32 (≈ 94 µM) | 16 (≈ 47 µM) | 84 | 60 | 80 | 72 |
| O=C(O)c1ccc(CN2C(=O)S/C(=C\c3ccco3)C2=O)cc1 | 16 (≈ 48.6 µM) | 32 (≈ 97.2 µM) | 64 (≈ 194 µM) | 64 (≈ 194 µM) | 32 (≈ 97.2 µM) | 16 (≈ 48.6 µM) | 32 (≈ 97.2 µM) | 64 (≈ 194 µM) | 90 | 80 | 94 | 76 |
| CC1(C)S[C@@H]2[C@H](NC(=O)[C@H](N)c3ccccc3)C(=O)N2[C@H]1C(=O)O [AMPICILLIN] |  |  |  | 2 (≈ 5.72 µM) | 2 (≈ 5.72 µM) |  |  |  |  |  |  |  |
| CC(=O)N1CCN(c2ccc(OCC3COC(Cn4ccnc4)(c4ccc(Cl)cc4Cl)O3)cc2)CC1 (configuration not stated) [KETOCONAZOLE] |  | 2 (≈ 3.76 µM) | 2 (≈ 3.76 µM) |  |  |  | 1 (≈ 1.88 µM) | 2 (≈ 3.76 µM) |  |  |  |  |

Continued by falling MIC [1], values first:

| MIC [1] [µg/mL] | MIC [2] [µg/mL] | MIC [3] [µg/mL] | MIC [4] [µg/mL] | MIC [5] [µg/mL] | MIC [6] [µg/mL] | MIC [9] [µg/mL] | MIC [12] [µg/mL] | Compound | IC50 [7] [µM] | IC50 [8] [µM] | IC50 [10] [µM] | IC50 [11] [µM] |
| --- | --- | --- | --- | --- | --- | --- | --- | --- | --- | --- | --- | --- |
| 32 (≈ 86.6 µM) | 32 (≈ 86.6 µM) | 16 (≈ 43.3 µM) | 16 (≈ 43.3 µM) | 16 (≈ 43.3 µM) | 32 (≈ 86.6 µM) | 32 (≈ 86.6 µM) | 16 (≈ 43.3 µM) | COc1ccc(/C=C2\SC(=O)N(Cc3ccc(C(=O)O)cc3)C2=O)cc1 | 48 | 40 | 44 | 44 |
| 16 (≈ 45.3 µM) | 64 (≈ 181 µM) | 64 (≈ 181 µM) | 32 (≈ 90.5 µM) | 32 (≈ 90.5 µM) | 16 (≈ 45.3 µM) | 32 (≈ 90.5 µM) | 64 (≈ 181 µM) | Cc1ccc(/C=C2\SC(=O)N(Cc3ccc(C(=O)O)cc3)C2=O)cc1 | 100 | 68 | 72 | 78 |
| 16 (≈ 46.3 µM) | 8 (≈ 23.2 µM) | 32 (≈ 92.6 µM) | 32 (≈ 92.6 µM) | 16 (≈ 46.3 µM) | 8 (≈ 23.2 µM) | 8 (≈ 23.2 µM) | 32 (≈ 92.6 µM) | O=C(O)c1ccc(CN2C(=O)S/C(=C\c3cccs3)C2=O)cc1 | 76 | 76 | 88 | 80 |
| 16 (≈ 46.7 µM) | 16 (≈ 46.7 µM) | 32 (≈ 93.5 µM) | 64 (≈ 187 µM) | 64 (≈ 187 µM) | 16 (≈ 46.7 µM) | 16 (≈ 46.7 µM) | 32 (≈ 93.5 µM) | Cn1cccc1/C=C1\SC(=O)N(Cc2ccc(C(=O)O)cc2)C1=O | 70 | 90 | 88 | 80 |
| 8 (≈ 23.6 µM) | 16 (≈ 47.1 µM) | 16 (≈ 47.1 µM) | 64 (≈ 189 µM) | 128 (≈ 377 µM) | 4 (≈ 11.8 µM) | 32 (≈ 94.3 µM) | 16 (≈ 47.1 µM) | O=C(O)c1ccc(CN2C(=O)S/C(=C\c3ccccc3)C2=O)cc1 | 100 | 72 | 88 | 90 |
| 8 (≈ 18.6 µM) | 4 (≈ 9.31 µM) | 4 (≈ 9.31 µM) | 8 (≈ 18.6 µM) | 8 (≈ 18.6 µM) | 8 (≈ 18.6 µM) | 4 (≈ 9.31 µM) | 2 (≈ 4.66 µM) | COc1cc(/C=C2\SC(=O)N(Cc3ccc(C(=O)O)cc3)C2=O)cc(OC)c1OC | 30 | 30 | 32 | 36 |
| 4 (≈ 9.56 µM) | 32 (≈ 76.5 µM) | 16 (≈ 38.3 µM) | 128 (≈ 306 µM) | 128 (≈ 306 µM) | 4 (≈ 9.56 µM) | 16 (≈ 38.3 µM) | 16 (≈ 38.3 µM) | O=C(O)c1ccc(CN2C(=O)S/C(=C\c3ccc(Br)cc3)C2=O)cc1 | 48 | 38 | 30 | 42 |
| 4 (≈ 11.2 µM) | 4 (≈ 11.2 µM) | 4 (≈ 11.2 µM) | 4 (≈ 11.2 µM) | 2 (≈ 5.6 µM) | 4 (≈ 11.2 µM) | 4 (≈ 11.2 µM) | 2 (≈ 5.6 µM) | O=C(O)c1ccc(CN2C(=O)S/C(=C\c3ccc(F)cc3)C2=O)cc1 | 38 | 34 | 32 | 36 |
